Read-outs that look alike come from different tables or passages of the source.
Legend:
[1] = molecular target: Cys242 in human PIK3CA (157-299) (Homo sapiens (Human), UniProt P42336); experiment: Covalent modification assay using MALDI-TOF MS; assay type: biochemical; settings: 4 h reaction time point
Outline: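 Covalent adduct formation was read by linear-mode MALDI-TOF with sinapinic acid matrix, reported as modified-protein peak height divided by total protein peak heights. Reactions held PIK3CA (157-299) at 1 or 3.33 μM in HEPES/NaCl/MgCl2 buffer, pH 7.3, sampled after 15 min to 4 h at room temperature.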

[2] = tested on: pAKT in BT474 cells; experiment: Cell-based pAKT HTRF assay in BT474 cells; settings: BT474 cells, 4 hr incubation, read-out: pAKT inhibition IC50 in BT474 cells
Outline: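 pAKT was measured by HTRF after a 4 hr compound exposure in BT474 cells (DMEM, 10% FBS, 0.25% DMSO), using 9 concentrations from 3 μM in 3-fold steps. Cell lysates were incubated with the Eu cryptate/d2 antibody pair at room temperature for 4 to 24 h. The plate was then read at 320 nm excitation and 615 nm emission.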

[3] = 3.33 μM protein target, 1:7.5 protein to compound ratio (compounds 1-852)
[4] = 1 μM protein target, 1:5 protein to compound ratio (compounds 853-1279)

Cys242 in human PIK3CA (157-299), sequence (P42336 157-299): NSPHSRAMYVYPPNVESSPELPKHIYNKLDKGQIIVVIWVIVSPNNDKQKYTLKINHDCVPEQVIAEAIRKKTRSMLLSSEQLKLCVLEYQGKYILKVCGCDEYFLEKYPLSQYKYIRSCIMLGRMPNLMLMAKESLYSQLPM

Row | Structure (SMILES) | IC50 ([2]; Homo sapiens, BT-474, Compounds 10-999) [µM] | IC50 ([2]; Compounds 10-999) [µM] | IC50 ([2]; Compounds 1000-1279) [µM] | % of modification [1, 3] | % of modification [1, 4]
1 | C=CC(=O)N1CCC(CO)(n2cc(-c3nc(-c4ccc5c(c4)CCNC5)c4ccsc4c3-c3ccc(F)cc3OC)cn2)CC1 [Compound 180, 1-[4-[4-[7-(4-fluoro-2-methoxy-phenyl)-4-(1,2,3,4-tetrahydroisoquinolin-6-yl)thieno[3,2-c]pyridin-6-yl]pyrazol-1-yl]-4-(hydroxymethyl)-1-piperidyl]prop-2-en-1-one] | 0.1 to 1 |  |  | A (percent of modification of PIK3CA protein ≥75%) | 
2 | C=CC(=O)N1CCc2ccc(-c3nc(-c4ccc5c(c4)CCN(CC(F)F)CC5)c4ccsc4c3-c3c(F)cc(F)cc3OCCOC)cc2C1 [Compound 1271] |  |  | > 1 |  | D (percent of modification <25%)
3 | C=CC(=O)N1CCn2nc(-c3nc(N4CC5(CCN(C)C5)C4)c4ccsc4c3-c3c(F)cc(F)cc3OCCOC)cc2C1C (centres unmarked) [Compound 1054] |  |  | 0.1 to 1 |  | C (25%≤percent of modification <50%)
4 | C=CC(=O)N1CCc2nc(-c3nc(-c4ccc5c(c4)CCN(C)C5)c4ccsc4c3-c3ccc(F)cc3OCCOC)sc2C1 [Compound 107] |  | < 0.1 |  | A (percent of modification of PIK3CA protein ≥75%) | 
5 | C=CC(=O)N1CCn2nc(-c3nc(-c4ccc5c(C)n(C)nc5c4)c4ccsc4c3-c3c(F)cc(F)cc3OCCO)cc2C1C (centres unmarked) [Compound 1076] |  |  | < 0.1 |  | A (percent of modification of PIK3CA protein ≥75%)
6 | C=CC(=O)N1CCn2nc(-c3nc(-c4cncc(C#N)c4)c4ccsc4c3-c3ccc(F)cc3OC(C)C)cc2C1 [Compound 259] |  | < 0.1 |  | A (percent of modification of PIK3CA protein ≥75%) | 
7 | C=CC(=O)N1CCc2nc(-c3nc(-c4ccc5c(c4)CCNC5)c4ccoc4c3-c3ccc(F)cc3OCCOC)sc2C1 [Compound 417] |  | < 0.1 |  | A (percent of modification of PIK3CA protein ≥75%) | 

More lines, main results first:

Row | IC50 ([2]; Homo sapiens, BT-474, Compounds 10-999) [µM] | IC50 ([2]; Compounds 10-999) [µM] | IC50 ([2]; Compounds 1000-1279) [µM] | Structure (SMILES) | % of modification [1, 3] | % of modification [1, 4]
8 |  | < 0.1 |  | C=CC(=O)N1CCn2nc(-c3nc(-c4ccc5c(c4)C(=O)NCC5)c4ccsc4c3-c3c(F)cc(F)cc3OCCOC)cc2[C@H]1C [Compound 956] |  | A (percent of modification of PIK3CA protein ≥75%)
9 |  |  | < 0.1 | C=CC(=O)N1CCn2nc(-c3nc(-c4ccc([C@H](NC)C(F)(F)F)cc4)c4ccsc4c3-c3c(F)cc(F)cc3OCCOC)cc2[C@H]1C (single isomer, unassigned) [Compound 1149] |  | A (percent of modification of PIK3CA protein ≥75%)
10 |  |  | < 0.1 | C=CC(=O)N1CCn2nc(-c3nc(-c4ccc(OCC5CN(C)C5)cc4)c4ccsc4c3-c3c(F)cc(F)cc3OCCOC)cc2C1C (centres unmarked) [Compound 1078] |  | A (percent of modification of PIK3CA protein ≥75%)
11 |  | < 0.1 |  | C=CC(=O)N1Cc2cc(-c3nc(-c4ccc(=O)n(CCN(C)C)c4)c4ccsc4c3-c3c(F)cc(F)cc3OCCOC)nn2C[C@H]1C [Compound 880] |  | A (percent of modification of PIK3CA protein ≥75%)
12 |  | < 0.1 |  | C=CC(=O)N1Cc2cc(-c3nc(-c4ccc5c(c4)ncn5C)c4ccsc4c3-c3c(F)cc(F)cc3OCCOC)nn2C[C@H]1C [Compound 669] | A (percent of modification of PIK3CA protein ≥75%) | 
13 |  | < 0.1 |  | C=CC(=O)N1CCn2nc(-c3nc(-c4cn(C)cn4)c4ccsc4c3-c3c(F)cc(F)cc3OCCOC)cc2[C@@H]1C [Compound 777] | A (percent of modification of PIK3CA protein ≥75%) | 
14 |  |  | < 0.1 | C=CC(=O)N1CCn2nc(-c3nc(-c4ccc(OCCN5CC(F)(F)C5)cc4)c4ccsc4c3-c3c(F)cc(F)cc3OCCOC)cc2C1C (centres unmarked) [Compound 1062] |  | A (percent of modification of PIK3CA protein ≥75%)
15 |  |  | < 0.1 | C=CC(=O)N1CCn2nc(-c3nc(-c4ccc5c(c4)[nH]c(=O)n5C)c4ccsc4c3-c3c(F)cc(F)cc3OCCOC)cc2C1C (centres unmarked) [Compound 1092] |  | A (percent of modification of PIK3CA protein ≥75%)
16 |  | < 0.1 |  | C=CC(=O)N1Cc2cc(-c3nc(-c4ccc5nn(C)cc5c4)c4ccsc4c3-c3c(F)cc(F)cc3OCCO)nn2CC1C (centres unmarked) [Compound 832] | A (percent of modification of PIK3CA protein ≥75%) | 

From patent US20250230138A1, “COMPOUNDS HAVING A T-STRUCTURE FORMED BY AT LEAST FOUR CYCLES FOR USE IN THE TREATMENT OF CANCER AND OTHER INDICATIONS” (TheRas, Inc., priority 2022, published 2025)
